Here are results for 87 compounds from a melting point compilation (Tetko et al.; mined from patent text by program, amines drawn as free bases though some values may be those of a salt).

As to `Cc1cc(CSCCNc2nc(NC(=O)Nc3ccccc3)nn2C)oc1CN(C)C`, the melting point (usually the temperature, or range, at which the solid turns liquid) lay in the range of 166 to 167 °C.
For `O=c1ccc2cn(C3OC(CO)C(O)C3O)c(=O)[nH]c-2n1` (configuration not stated), the melting point lay in the range of 189 to 190 °C.
As for `CC(=O)OC1CSC(Sc2cccc(C#N)c2)C(OC(C)=O)C1OC(C)=O` (configuration not stated), the melting point was determined as 133 °C.
As for `COc1ccc(S(=O)(=O)N(CC(=O)NO)Cc2ccc3ccccc3n2)cc1`, the melting point lay within 177 to 178 °C.
For `O=C1OC(c2ccccc2)(c2ccccc2)C2CN(C3CCN(Cc4ccccc4)CC3)CCN12` (configuration not stated), the melting point fell in the range of 153 to 155 °C.
Next, `CN1C(=O)CC[C@]2(C)c3ccc(-c4cc(C(F)(F)F)cc(C(F)(F)F)c4)cc3CC[C@@H]12`: 110 to 112 °C; `NNc1cccc(-c2ccccn2)n1`: 69 to 70 °C.
The compound `COc1ccc2c(c1)C=C(C(=O)NCCCCN1CCN(c3ccccc3OC)CC1)CO2` displayed a melting point of 165 °C.
In the case of `N#CC(C(=O)O)=C1Nc2ccccc2O1`, the melting point fell in the range of 185 to 187 °C.
Next, `Cc1ccc(S(=O)(=O)n2cc(C(C)O)c3ccc(C(=O)Nc4c(Cl)cncc4Cl)cc32)cc1` (configuration not stated): 206 to 211 °C; `O=C(CCl)Nc1nc(-c2ccccc2)cs1`: 179 to 181 °C; `O=S(=O)(c1ccc(Cl)cc1)C(c1ccc(CO)cn1)c1cc(F)ccc1F` (configuration not stated): 151 to 152 °C.
In turn, `COc1cc(Cl)c(N)cc1-c1nc(C)c(-c2cccnc2)[nH]1` came in with a melting point of 173 to 175 °C.
Take `CN1CCN(c2nn(S(=O)(=O)c3ccccc3)c3cc(Cl)ccc23)CC1`: the melting point is 139 to 141 °C.
As for `Nc1c(-c2ccc(-c3ccc(F)cc3F)cc2)nc2ccc(Cl)cc2c1C(=O)O`, the melting point fell in the range of 253 to 254 °C.
The same measure for `CC(C)(C)c1cc(C(=O)NCCCSc2ccncc2)cc(C(C)(C)C)c1O`: 203 to 204 °C.
Turning to `COC(=O)N[C@@H](Cc1ccccc1)[C@H](O)CCl`, the melting point is 163 to 164 °C.
Next, `CC(C)(C#N)c1ccc(-n2c(-c3cc(-c4cnc5ccccc5c4)ccn3)c[nH]c2=O)cc1`: 271 °C.
`CCCCCCCCCCOc1ccc2c(=O)c3cccc(C(=O)O)c3oc2c1CCC(=O)O` returned a melting point greater than 210 °C.
Turning to `CC(=Cc1ccccc1)c1ccc2c(c1)OCCC2(C)C`, the melting point is 44 to 46 °C.
Next, `CCCn1cc(C(N)=O)c(N)n1`: 160 to 163 °C; `CN1Cc2cc(C(O)CN3CCC(COc4ccccc4)CC3)ccc2NC1=O` (configuration not stated): 205 °C; `c1ccc2c(c1)COc1ccccc1-2`: 97 °C.
The compound `Cc1nnc2c(-c3cccnc3)cccn12` yielded a melting point of 112 to 115 °C.
`NC(=O)N(O)Cc1ccc(OCCc2noc(-c3ccccc3)n2)cc1` displayed a melting point of 135 to 136 °C.
The same measure for `Brc1cccc(-c2ccccc2)n1`: 50 °C; for `CCOC(=O)Cc1csc(NC(=O)c2ccc(F)cc2)n1`: 110 to 112 °C; for `CN1C(=O)C2(COc3cc4c(cc32)OCCO4)c2c(-c3cnn(C)c3)cccc21` (configuration not stated): 220 to 222 °C.
For the compound `O=C(O)CCC(Cc1ccccc1Cl)(C(=O)C=Cc1c(Cl)cccc1Cl)c1ccccc1` (configuration not stated), the melting point was in the range of 140 to 143 °C.
The same measure for `C=Cc1c(C(=O)NC2CC2)nnn1-c1ccc(C(=O)NCC)cc1`: 162 °C.
`O=C1Nc2ccc(I)cc2C1=NNC(=O)C1CCN(Cc2cccnc2)CC1`: the melting point worked out at 125 °C.
In turn, `CCOC(=O)CC1COc2c(OC)ccc(C(=O)Nc3ccccc3)c21` (configuration not stated) yielded a melting point of 93 to 95 °C.
For the compound `COc1ccc(-c2cc3ccc(OC)cc3n2C)cc1`, the melting point is 163 to 166 °C.
Next, `COc1ccc(C(=O)Nc2ccc(C)c(Cl)c2)cc1NC(=S)Nc1cc(Cl)cc(Cl)c1`: 195 to 196 °C; `CC(=O)NCC1CN(c2ccc(N3CCC(=CC#N)C(F)C3)c(F)c2)C(=O)O1` (configuration not stated): 138 to 140 °C.
The compound `Cc1cccc2c1nc(-c1c(F)cccc1F)n2Cc1ccccc1` displayed a melting point of 112 to 117 °C.
Compound `COc1cc(C(=O)c2nc(NC(=O)C(F)(F)F)c3ccccn23)ccc1[N+](=O)[O-]` registered a melting point of 228 °C.
Next, `CC(=O)Nc1ccc(C(F)(F)F)cc1-c1ccc(OC(C)C(O)CCc2cccnc2)cc1` (configuration not stated): 44 to 47 °C; `CC(C)(C)OC(=O)N1CC(CCl)c2ccc([N+](=O)[O-])cc21` (configuration not stated): 111 to 112 °C.
The same measure for `Brc1ccc2c(c1)C=NC=CN2`: 135 to 138 °C; for `CCN(Cc1cc(Br)ccc1NCc1ccccc1)c1ccc(C(=O)O)nn1`: 176 °C; for `CCS(=O)(=O)NCc1ccc2[nH]cc(CCCN3CCN(c4ncncc4OC)C(C)C3)c2c1` (configuration not stated): 202 to 210 °C.
In turn, `CCOP(=O)(C[C@H]1CCN[C@@H](C(N)=O)C1)OCC` (relative stereo) registered a melting point of 155 to 158 °C.
For `COC(=O)c1ccc(C(=O)NC2CCC(NC(=O)c3ccc(C(=O)OC)cc3)CC2)cc1` (configuration not stated), the melting point was greater than 350 °C.
The same measure for `N#Cc1c(Cl)[nH]c(-c2ccc(Cl)c(Cl)c2)c1Cl`: greater than 200 °C; for `Nc1ccc2nc(-c3ccc4c(c3)OCO4)ncc2c1`: 191 to 192 °C.
Next, `CCOC(=O)c1ccc(NCCCCCCOc2ccccc2)cc1`: 105 to 108 °C; `C#CCn1cc(CO)c([N+](=O)[O-])c1`: 60 °C.
In the case of `CCCS(=O)c1ccc(-c2coc3ccc(-c4nnc(C)o4)cc23)cc1` (configuration not stated), the melting point is 140 to 141 °C.
As to `COc1cc2nc(N3CCN(c4nc5ccccc5s4)CC3)nc(N)c2cc1OC`, the melting point was 242 to 245 °C.
Compound `O=C(C=Cc1cccnc1)c1ccccc1OCc1ccccc1` registered a melting point of 117 to 119 °C.
With `Cc1nnc2n1-c1ccc(Cl)cc1C(N1CCCC1)=NC2`, the melting point lay in the range of 222 to 225 °C.
Next, `Nc1ncnc2ncn(COCCO)c12`: 122 to 123 °C.
Next, `CCN(CC)C(=O)c1ccc(C(=C2CC3CCC(C2)N3C)c2ccccc2)cc1`: 145 to 147 °C; `COc1ccc2c(c1)cc(-c1cc3cccnc3[nH]1)n2C`: 234 to 235 °C; `Cn1cc(C(=O)O)c(=O)c2c3cc(N4CCC(O)(c5cccc(C(F)(F)F)c5)CC4)c(F)cc3ncc21`: 300 °C.
Next, `CSc1nc(C#N)c(I)c(C(F)(F)F)n1`: 68 to 69 °C; `COc1cc(OC)c2c(=O)cc(-c3ccc(C)cc3)oc2c1C1=CCN(C)CC1`: 113 to 114 °C.
The compound `C[Si](C)(C)C/C=C/[C@@H](Cc1ccccc1)C(=O)N1C(=O)OC[C@H]1Cc1ccccc1` registered a melting point of 132 to 135 °C.
Next, `O=c1c2cc(O)ccc2oc2c(CO)ccc(NCCN3CCCC3)c12`: 186 to 190 °C; `O=C(CN1C(=O)C2(COc3ccc(Br)cc32)c2ccccc21)Nc1ccccc1F` (configuration not stated): 100 to 103 °C; `O=C1c2c(Cl)cccc2-n2cnc(-c3nc(C4CC4)no3)c2[C@@H]2CCN12`: 140 to 142 °C.
Next, `O=CN(O)C(CCc1ncc(F)cn1)CS(=O)(=O)N1CCN(c2ccc(Cl)cn2)CC1` (configuration not stated): 154 to 155 °C; `COC(=O)C1=C(O)C(OC)(OC)C(O)=C(C(=O)OC)C1`: 143 to 144 °C; `COCCOC(=O)COc1ccc(C(=O)[C@H](COC(C)(C)C)NC(=O)c2ccc(C(=N)NC(=O)OC(C)(C)C)cc2)cc1`: 174 °C.
Next, `Cc1sc(S(=O)(=O)NC(C)(C)CO)cc1[N+](=O)[O-]`: 118 °C.
In turn, `Cc1c(Cc2ccc(F)c(Cl)c2)sc2c(-c3cccc(C(=O)NCCO)c3)cccc12` returned a melting point of 146 to 147 °C.
Next, `O=C(NC(Cc1ccc(OCc2ccc(C(F)(F)F)cc2)cc1)C(=O)O)c1cc2cc(-c3ccc(Cl)cc3)ccc2s1` (configuration not stated): 198 °C; `CC12CC(N3CCC4(CC3)OCCO4)C(O)CC1CCC1C2CCC2(C)C(O)C(N3CCCCC3)CC12` (configuration not stated): 216 to 218 °C.
Next, `CCOc1ccc(-c2cn(C)c(SCC)n2)cc1`: 98.2 °C; `COc1cccc2sc(-c3ccc(C)cc3)nc12`: 98 to 100 °C; `CCCc1nn(C)c2c(=O)n(CCOc3ccc(OC(C)(C)C(=O)O)cc3)c(CC)nc12`: 108 to 110 °C.
Next, `CCC(C)(C)NC1=NS(=O)(=O)c2sc(Cl)cc2N1`: 359 to 360 °C; `N#Cc1ccc2ccc(C(=O)O)cc2c1`: 279 to 283 °C.
Take `CCC1(C)CC(O)CC(C)(C)N1OC(C)(C)C#N` (configuration not stated): the melting point was 48 to 60 °C.
Consider `O=S(=O)(c1ccccc1)N1CCC(C(O)(c2ccc(F)cc2)c2ccc(F)cc2)CC1`, for which the melting point lay within 142 to 144 °C.
The compound `C=CCCCCCCCCC(=O)OC1CCC2C3CCC4=CC(=O)CCC4C3CCC12CC` (configuration not stated) yielded a melting point of 87 to 88 °C.
`CC1c2cc(F)ccc2CCN1C(=O)c1cc2ncc(Br)cn2n1` (configuration not stated) gave a melting point of 174 to 176 °C.
The same measure for `O=c1[nH]c(N[N+](=O)[O-])ncc1Cc1ccn(Cc2ccccc2)c(=O)c1`: 200 to 201 °C; for `O=c1[nH]c2ccc(C3CCN(Cc4ccc(-c5ccccc5)cc4)CC3)cc2[nH]1`: greater than 260 °C; for `CC(C)(C)C(=O)OCOC(=O)[C@H]1C[C@H](NC(=O)Cc2ccccc2)c2c(Cl)cc(Cl)cc2N1` (relative stereo): 162 to 163 °C.
The compound `NC(C(=O)O)c1ccc(C(=O)O)c(O)c1CCCc1ccccc1` (configuration not stated) had a melting point greater than 250 °C.
Next, `CC(=O)ON=C(c1ccccc1)c1cc(C(C)(C)C)c(O)c(C(C)(C)C)c1`: 136 to 137 °C; `O=C(Nc1ccc([N+](=O)[O-])cc1)N(O)C1CCCCCCC1`: 143 to 144 °C.
As for `Cc1ccc(S(=O)(=O)OC(=O)c2ccc(C(=O)OS(=O)(=O)c3ccc(C)cc3)cc2)cc1`, the melting point was 170 to 176 °C.
Next, `CCNc1ccc2c(c1)CN(c1c(F)cc3c(=O)c(C(=O)O)cn4c3c1OCC4C)C2` (configuration not stated): greater than 300 °C; `CC(=O)Nc1nc2c(nc(NC(C)=O)n2Cc2cccs2)c(=O)[nH]1`: 243 to 244 °C.
